Results on two compounds are retold here after ChEMBL document CHEMBL1131729, “Isolation and synthesis of a novel immunosuppressive 17alpha-substituted dammarane from the flour of the Palmyrah palm (Borassus flabellifer)” (Bioorg Med Chem Lett, 1999).

In brackets after ≈: the same amount, converted by molar mass.

For experiment [1], the system named is Mus musculus. In words: Compound was tested […] for immunosuppressive activity in the serum free mixed lymphocyte reaction. Type of experiment: functional.
In experiment [2] the test system is Mus musculus. In words: In vivo immunosuppressive activity in the delayed type hypersensitivity model induced by SRBC-TH cells in mouse after peroral administration. Type of experiment: functional. The settings on record: po.

Compound `C=C(C/C=C/C(C)(C)O)[C@@H]1CC[C@]2(C)[C@@H]1CC[C@@H]1[C@@]3(C)CC[C@H](O)C(C)(C)[C@@H]3CC[C@]12C` came in with an IC50 in the experiment on Mus musculus [1] of 0.01 µg/mL (≈ 0.0226 µM). In addition, it took a dose of 0.04 mg/kg to reach the 50% effect level with Mus musculus [2] (ED50).

For `C=C(C/C=C/C(C)(C)O)[C@H]1CC[C@]2(C)[C@@H]1CC[C@@H]1[C@@]3(C)CC[C@H](O)C(C)(C)[C@@H]3CC[C@]12C`, the IC50 in the experiment with Mus musculus [1] came out at 0.8 µg/mL (≈ 1.81 µM). Besides, in the experiment on Mus musculus [2], it took a dose of 10 mg/kg to reach the 50% effect level (ED50).

One may read the IC50 as the concentration needed to halve the response being measured. High values mean a need for much substance, low ones inhibition by little substance. The term ED50 denotes the dose that gives a 50% effect, or the effect in half of the subjects. Lower therefore signals greater potency.
